Experimental data published in patent US6790836B2, “Process for preparing indolopyrrolocarbazole derivatives, intermediates therefor, and preparation process of the intermediates” (Banyu Pharmaceutical Co., Ltd., priority 2000, dated 2004).

Biological target: T1, topoisomerase I (Homo sapiens, UniProt P11387)
T1 sequence (P11387 1-765): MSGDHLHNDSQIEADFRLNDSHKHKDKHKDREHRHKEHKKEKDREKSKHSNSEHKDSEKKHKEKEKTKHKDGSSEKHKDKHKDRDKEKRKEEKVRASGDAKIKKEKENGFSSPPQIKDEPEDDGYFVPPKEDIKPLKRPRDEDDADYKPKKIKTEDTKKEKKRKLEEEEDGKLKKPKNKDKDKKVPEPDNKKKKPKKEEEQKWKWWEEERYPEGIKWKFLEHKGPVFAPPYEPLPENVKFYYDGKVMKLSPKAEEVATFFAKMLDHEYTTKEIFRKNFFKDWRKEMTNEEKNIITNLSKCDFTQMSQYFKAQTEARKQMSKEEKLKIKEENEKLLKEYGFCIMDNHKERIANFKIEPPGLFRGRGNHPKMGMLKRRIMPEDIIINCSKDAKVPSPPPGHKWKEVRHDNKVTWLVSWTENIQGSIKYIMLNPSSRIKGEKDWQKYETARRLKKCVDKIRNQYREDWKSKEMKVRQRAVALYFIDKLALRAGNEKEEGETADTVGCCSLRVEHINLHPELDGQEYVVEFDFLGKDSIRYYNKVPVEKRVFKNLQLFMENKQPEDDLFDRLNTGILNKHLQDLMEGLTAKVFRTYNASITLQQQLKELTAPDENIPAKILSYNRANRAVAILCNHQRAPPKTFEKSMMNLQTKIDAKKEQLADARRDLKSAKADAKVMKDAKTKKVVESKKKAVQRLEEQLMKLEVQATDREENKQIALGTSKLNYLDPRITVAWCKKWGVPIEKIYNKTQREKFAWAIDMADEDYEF
Assay: Topoisomerase I-inhibiting activity
Type: biochemical
Conditions: concentration of a compound needed to inhibit topoisomerase I activity by 50%
Description: Topoisomerase I-inhibiting activity was assayed by the method described in Yoshinari, T et al., Cancer Research, vol. 55, page 1310 (1995).
In the table, EC50 means the concentration of a compound needed to inhibit topoisomerase I activity by 50%.

Row | SMILES | EC50 [µM]
1 | CN1C(=O)c2c(c3c4ccc(O)cc4n([C@@H]4O[C@H](CO)[C@@H](O)[C@H](O)[C@H]4O)c3c3[nH]c4cc(O)ccc4c23)C1=O [Compound [b]] | 0.68
2 | O=C1OC(=O)c2c1c1c3ccc(O)cc3[nH]c1c1c2c2ccc(O)cc2n1C1OC(CO)C(O)C(O)C1O (stereo not shown) [Compound [c]] | 0.18
3 | O=C1c2c(c3c4ccc(OCc5ccccc5)cc4n(C4OC(COCc5ccccc5)C(OCc5ccccc5)C(OCc5ccccc5)C4OCc4ccccc4)c3c3[nH]c4cc(OCc5ccccc5)ccc4c23)C(=O)N1NC(CO)CO [Example 2, 12,13-dihydro-2,10-dibenzyloxy-6-N-(1-hydroxymethyl-2-hydroxyethylamino)-13-(β-D-2,3,4,6-tetra-O-benzylglucopyranosyl)-5H-indolo[2.3-a]pyrrolo[3,4-c]-carbazole-5,7(6H)-dione] | > 1000
4 | O=C1OC(=O)c2c1c1c3ccc(OCc4ccccc4)cc3[nH]c1c1c2c2ccc(OCc3ccccc3)cc2n1C1OC(COCc2ccccc2)C(OCc2ccccc2)C(OCc2ccccc2)C1OCc1ccccc1 [Example 1, 12,13-dihydro-2,10-dibenzyloxy-13-(β-D-2,3,4,6-tetra-O-benzylglucopyranosyl)-5H-indolo[2,3-a]carbazole-5,6-dicarboxylic anhydride] | > 1000
